Measured values from patent US11117900B2 (Vertex Pharmaceuticals Incorporated, priority 2012, dated 2021).

tested on: HCT116 colorectal cancer cells; assay: Cisplatin sensitization assay (96 h MTS cell viability); format: cell-based; details: Cisplatin sensitization value;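 also: compound concentration needed to lower the IC50 of Cisplatin alone by a set fold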
How it was run: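 HCT116 cells were dosed simultaneously with compound and cisplatin as a full matrix of 2-fold serial dilutions from 10 μM top final concentration. Incubation was 96 h at 37° C., 5% CO2, followed by 1 h with MTS reagent for the viability read-out. Sensitization values were binned into +++, ++ and + categories.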

SMILES | Cisplatin Sensitization Assay
CN1CCOC2(CCN(c3c(F)cncc3NC(=O)c3c(N)nn4cc(F)cnc34)CC2)C1 [I-N-272, 2-amino-6-fluoro-N-(5-fluoro-4-(4-methyl-1-oxa-4,9-diazaspiro[5.5]undecan-9-yl)pyridin-3-yl)pyrazolo[1,5-a]pyrimidine-3-carboxamide] | +++ (Compounds with a Cisplatin sensitization value of <0.02 μM are marked with “+++.”)
Nc1nn2cc(F)cnc2c1C(=O)Nc1cnccc1N1CCN(C2CCOCC2)CC1 [I-N-11, 2-amino-6-fluoro-N-(4-(4-(tetrahydro-2H-pyran-4-yl)piperazin-1-yl)pyridin-3-yl)pyrazolo[1,5-a]pyrimidine-3-carboxamide] | ++ (Compounds with a Cisplatin sensitization value >0.02 μM but <0.2 μM are marked with “++.”)
COCCS(=O)(=O)C1CCN(c2ccncc2NC(=O)c2c(N)nn3cc(F)cnc23)CC1 [I-N-208, 2-amino-6-fluoro-N-(4-(4-((2-methoxyethyl)sulfonyl)piperidin-1-yl)pyridin-3-yl)pyrazolo[1,5-a]pyrimidine-3-carboxamide] | +++ (Compounds with a Cisplatin sensitization value of <0.02 μM are marked with “+++.”)
CC1(N2CCN(c3ccncc3NC(=O)c3c(N)nn4cc(F)cnc34)CC2)COC1 [I-N-62, 2-amino-6-fluoro-N-(4-(4-(3-methyloxetan-3-yl)piperazin-1-yl)pyridin-3-yl)pyrazolo[1,5-a]pyrimidine-3-carboxamide] | ++ (Compounds with a Cisplatin sensitization value >0.02 μM but <0.2 μM are marked with “++.”)
Nc1nn2cc(Cl)cnc2c1C(=O)Nc1cnccc1OCCN1CCOCC1 [I-O-60, 2-amino-6-chloro-N-(4-(2-morpholinoethoxy)pyridin-3-yl)pyrazolo[1,5-a]pyrimidine-3-carboxamide] | ++ (Compounds with a Cisplatin sensitization value >0.02 μM but <0.2 μM are marked with “++.”)
Nc1nn2cc(F)cnc2c1C(=O)Nc1cnccc1C1CCN(C(=O)C2CC2)CC1 [I-C-70, 2-amino-N-(4-(1-(cyclopropanecarbonyl)piperidin-4-yl)pyridin-3-yl)-6-fluoropyrazolo[1,5-a]pyrimidine-3-carboxamide] | +++ (Compounds with a Cisplatin sensitization value of <0.02 μM are marked with “+++.”)
Nc1nn2cc(F)cnc2c1C(=O)Nc1cnccc1OC1CCS(=O)(=O)CC1 [I-O-45, 2-amino-N-(4-((1,1-dioxidotetrahydro-2H-thiopyran-4-yl)oxy)pyridin-3-yl)-6-fluoropyrazolo[1,5-a]pyrimidine-3-carboxamide] | +++ (Compounds with a Cisplatin sensitization value of <0.02 μM are marked with “+++.”)
Nc1nn2cc(Cl)cnc2c1C(=O)Nc1cnccc1N1CCC(N2CCOCC2)CC1 [I-N-104, 2-amino-6-chloro-N-(4-(4-morpholinopiperidin-1-yl)pyridin-3-yl)pyrazolo[1,5-a]pyrimidine-3-carboxamide] | +++ (Compounds with a Cisplatin sensitization value of <0.02 μM are marked with “+++.”)
CN1C2CCC1CN(C(=O)C1CCN(c3c(F)cncc3NC(=O)c3c(N)nn4cc(F)cnc34)CC1)C2 [I-G-52, 2-amino-6-fluoro-N-(5-fluoro-4-(4-(8-methyl-3,8-diazabicyclo[3.2.1]octane-3-carbonyl)piperidin-1-yl)pyridin-3-yl)pyrazolo[1,5-a]pyrimidine-3-carboxamide] | +++ (Compounds with a Cisplatin sensitization value of <0.02 μM are marked with “+++.”)
CN1CCC[C@H]1COc1ccncc1NC(=O)c1c(N)nn2cc(Cl)cnc12 [I-O-50, (S)-2-amino-6-chloro-N-(4-((1-methylpyrrolidin-2-yl)methoxy)pyridin-3-yl)pyrazolo[1,5-a]pyrimidine-3-carboxamide] | + (Compounds with a Cisplatin sensitization value >0.2 μM but <5 μM are marked with “+.”)
Cc1nc(N2CCN(C)CC2)ccc1-c1ccncc1NC(=O)c1c(N)nn2cc(F)cnc12 [I-C-40, 2-amino-6-fluoro-N-(2-methyl-6-(4-methylpiperazin-1-yl)-[3,4′-bipyridin]-3′-yl)pyrazolo[1,5-a]pyrimidine-3-carboxamide] | +++ (Compounds with a Cisplatin sensitization value of <0.02 μM are marked with “+++.”)
CN(C)CCOCCOc1ccncc1NC(=O)c1c(N)nn2cc(Cl)cnc12 [I-O-47, 2-amino-6-chloro-N-(4-(2-(2-(dimethylamino)ethoxy)ethoxy)pyridin-3-yl)pyrazolo[1,5-a]pyrimidine-3-carboxamide] | + (Compounds with a Cisplatin sensitization value >0.2 μM but <5 μM are marked with “+.”)
Nc1nn2cc(F)cnc2c1C(=O)Nc1cnccc1OC1CN2CCC1CC2 (racemic) [I-O-6, (R,S)-2-amino-6-fluoro-N-(4-(quinuclidin-3-yloxy)pyridin-3-yl)pyrazolo[1,5-a]pyrimidine-3-carboxamide] | +++ (Compounds with a Cisplatin sensitization value of <0.02 μM are marked with “+++.”)
CC(=O)N1CC2(CCN(c3ccncc3NC(=O)c3c(N)nn4cc(F)cnc34)CC2)C1 [I-N-251, N-(4-(2-acetyl-2,7-diazaspiro[3.5]nonan-7-yl)pyridin-3-yl)-2-amino-6-fluoropyrazolo[1,5-a]pyrimidine-3-carboxamide] | +++ (Compounds with a Cisplatin sensitization value of <0.02 μM are marked with “+++.”)
Cn1ncnc1-c1ccncc1NC(=O)c1c(N)nn2cc(F)cnc12 [I-C-65, 2-amino-6-fluoro-N-(4-(1-methyl-1H-1,2,4-triazol-5-yl)pyridin-3-yl)pyrazolo[1,5-a]pyrimidine-3-carboxamide] | ++ (Compounds with a Cisplatin sensitization value >0.02 μM but <0.2 μM are marked with “++.”)
CN(C)CC1CCN(c2ccncc2NC(=O)c2c(N)nn3cc(Cl)cnc23)CC1 [I-N-45, 2-amino-6-chloro-N-(4-(4-((dimethylamino)methyl)piperidin-1-yl)pyridin-3-yl)pyrazolo[1,5-a]pyrimidine-3-carboxamide] | ++ (Compounds with a Cisplatin sensitization value >0.02 μM but <0.2 μM are marked with “++.”)
CN1CC(N2CCN(C(=O)C3CCN(c4c(F)cncc4NC(=O)c4c(N)nn5cc(F)cnc45)CC3)CC2)C1 [I-G-96, 2-amino-6-fluoro-N-(5-fluoro-4-(4-(4-(1-methylazetidin-3-yl)piperazine-1-carbonyl)piperidin-1-yl)pyridin-3-yl)pyrazolo[1,5-a]pyrimidine-3-carboxamide] | +++ (Compounds with a Cisplatin sensitization value of <0.02 μM are marked with “+++.”)
COCCN1CCC[C@H](Oc2ccncc2NC(=O)c2c(N)nn3cc(Cl)cnc23)C1 [I-O-67, (S)-2-amino-6-chloro-N-(4-((1-(2-methoxyethy)piperidin-3-yl)oxy)pyridin-3-yl)pyrazolo[1,5-a]pyrimidine-3-carboxamide] | ++ (Compounds with a Cisplatin sensitization value >0.02 μM but <0.2 μM are marked with “++.”)
Nc1nn2cc(F)cnc2c1C(=O)Nc1cnccc1C1CCN(S(=O)(=O)C2CC2)CC1 [I-C-47, 2-amino-N-(4-(1-(cyclopropylsulfonyl)piperidin-4-yl)pyridin-3-yl)-6-fluoropyrazolo[1,5-a]pyrimidine-3-carboxamide] | +++ (Compounds with a Cisplatin sensitization value of <0.02 μM are marked with “+++.”)
CN(C)CC1CCN(c2ccncc2NC(=O)c2c(N)nn3cc(F)cnc23)CC1 [I-N-267, 2-amino-N-(4-(4-((dimethylamino)methyl)piperidin-1-yl)pyridin-3-yl)-6-fluoropyrazolo[1,5-a]pyrimidine-3-carboxamide] | +++ (Compounds with a Cisplatin sensitization value of <0.02 μM are marked with “+++.”)
CN1CCC(C(=O)N2CCC(c3ccncc3NC(=O)c3c(N)nn4cc(F)cnc34)CC2)CC1 [I-C-16, 2-amino-6-fluoro-N-(4-(1-(1-methylpiperidine-4-carbonyl)piperidin-4-yl)pyridin-3-yl)pyrazolo[1,5-a]pyrimidine-3-carboxamide] | + (Compounds with a Cisplatin sensitization value >0.2 μM but <5 μM are marked with “+.”)
Nc1nn2cc(F)cnc2c1C(=O)Nc1cncc(F)c1N1CCC(C(=O)N2CCN3CCC2C3)CC1 (stereo not shown) [I-G-46, N-(4-(4-(1,4-diazabicyclo[3.2.1]octane-4-carbonyl)piperidin-1-yl)-5-fluoropyridin-3-yl)-2-amino-6-fluoropyrazolo[1,5-a]pyrimidine-3-carboxamide] | +++ (Compounds with a Cisplatin sensitization value of <0.02 μM are marked with “+++.”)
Nc1nn2cc(F)cnc2c1C(=O)Nc1cnccc1-c1ccc(C(=O)N2CCN(C3COC3)CC2)cc1 [I-C-49, 2-amino-6-fluoro-N-(4-(4-(4-(oxetan-3-yl)piperazine-1-carbonyl)phenyl)pyridin-3-yl)pyrazolo[1,5-a]pyrimidine-3-carboxamide] | +++ (Compounds with a Cisplatin sensitization value of <0.02 μM are marked with “+++.”)
CC(=O)N1CCCC12CCN(c1ccncc1NC(=O)c1c(N)nn3cc(F)cnc13)CC2 [I-N-262, N-(4-(1-acetyl-1,8-diazaspiro[4.5]decan-8-yl)pyridin-3-yl)-2-amino-6-fluoropyrazolo[1,5-a]pyrimidine-3-carboxamide] | +++ (Compounds with a Cisplatin sensitization value of <0.02 μM are marked with “+++.”)
CN1CCC(C(=O)N2CCN(c3c(F)cncc3NC(=O)c3c(N)nn4cc(F)cnc34)CC2)CC1 [I-N-128, 2-amino-6-fluoro-N-(5-fluoro-4-(4-(1-methylpiperidine-4-carbonyl)piperazin-1-yl)pyridin-3-yl)pyrazolo[1,5-a]pyrimidine-3-carboxamide] | +++ (Compounds with a Cisplatin sensitization value of <0.02 μM are marked with “+++.”)
